Three molecules from US8309550B2, “Kinase inhibitors and their use as pharmaceutical agents” (Shanghai Genomics, Inc., priority 2011, dated 2012) can be followed below.

Read-outs that look alike come from different tables or passages of the source. Where only a bound is given, the exact number is not on record here.

As usually defined, the IC50 is the concentration at which inhibition is half-maximal.

The subject of one experiment is MDA-MB-231-luc. Nature of the experiment: 72 h MTT cell viability MDA-MB-231-luc. It counts as cell-based. The following applies: Homo sapiens. Summed up: (§1)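 Cells were seeded at 4000 per well overnight, then given ½ dilution series in duplicate (0.025% final DMSO) for 72 hrs at 37° C. MTT was added for 4 hr, the dye was solubilised in DMSO and absorbance read at 562 nm. IC50 came from sigmoid curve fitting.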

The test system of another experiment is HepG2. Nature of the experiment: 72 h MTT cytotoxicity assay HepG2. Type of experiment: cell-based. The following applies: Homo sapiens; HepG2, 72 hrs. The method, boiled down: as §1
In general terms: Tetrazolium assays rely on reduction of a dye to a coloured formazan, in cell work by metabolically active cells.

A further experiment concerns HT-29. The experiment is described as follows: 72 h MTT cell viability HT-29. The note with it: Homo sapiens, read-out: Cell Viability IC50 HT-29. Type of experiment: cell-based. The source says:
(§2) MIT cytotoxicity assay. The compounds of the invention were subjected to a standard cellular proliferation assay using human cell lines. HeLa cells (Human cervix adenocarcinoma cell line, ATCC NO, CCL-2); A549 cells (Human lung carcinoma cells line, ATCC NO, CCL-185); U2OS cells (Human osteosarcoma cell line, ATCC NO, HTB-96); Eca-109 cells (Human esophageal carcinoma cell line); HepG2 (Human hepatocellular liver carcinoma cell line, ATCC NO, HB-8065); K562 cells (Human chronic myelogenous leukemia cell line, ATCC NO, CCL-243); SK-MEL-28 (Human malignant melanoma cell line, ATCC NO, HTB-72); Molt-4 (Human acute lymphoblastic leukemia cell line, ATCC NO, CRL-1582); H460 (Human large cell lung cancer cell line, ATCC NO, HTB-177); MDA-MB-231 (Human breast adenocarcinoma cell line, ATCC NO, HTB-26); MCF7 (Human breast adenocarcinoma cell line, ATCC NO, HTB-22); ACHN (Human renal cell adenocarcinoma cell line, ATCC NO, CRL-1611); PC-3M (Human prostate adenocarcinoma cell line, ATCC NO CRL-1435); HL60 (Human acute promyelocytic leukemia cell line, ATCC NO, CCL-240); THP-1 (Human acute monocytic leukemia, ATCC NO, TIB-202); Jurkat (Human acute T cell leukemia cell line, ATCC NO, CRL-2063); HCT-116 (Human colorectal carcinoma cell line, ATCC NO, CCL-247); HT-29 (Human colorectal adenocarcinoma cell line, ATCC NO, HTB-38™); WI-38 (Human normal lung cell line, ATCC NO, CCL-75); MRC-5 (Human normal lung cell line, ATCC NO, CCL-171).
(§3) HepG2, MDA-MB-231, WI-38 and MRC-5 cells were obtained from Shanghai Institute of Cell Biology, Chinese Academy of Sciences (Shanghai 200031, China). A549, HeLa, K562, MCF7, ACHN, H460, U2OS, Eca-109, MCF7, HL60, THP-1, Jurkat, HCT-116, HT-29, PC-3M, SK-MEL-28, Molt-4, H460 and […] cells were purchased from ATCC (American Type Culture Collection, USA).
(§4) Standard 72 h MTT (thiazolye blue; 3-[4,5-dimethylthiazol-2-yl]-2,5-diphenyltetrazolium bromide) assays were performed. Briefly, the cell lines used in this study were recovered and cultured according to the conditions recommended. 4000 cells per well were seeded into 96-well plates according to doubling time and incubated overnight at 37° C. Compounds were prepared in DMSO and a ½ dilution series in 100 μl cell culture media, added to cells (in duplicates) with the final DMSO concentration of 0.025%, and incubated for 72 hrs at 37° C. MTT solution (5 mg/ml) was added at 10 μl per well and incubated in the dark at 37° C. for 4 hr. Culture medium and MTT solution was removed. MTT dye was solubilised with 100 μl per well of DMSO with agitation. Absorbance was read at 562 nm and data analyzed using Sigmoid curve-fitting software Origin 6.0 (MicroCal, LLC, USA) to determine IC50 value.

A further experiment deals with MCF7. The experiment is described as follows: 72 h MTT cytotoxicity assay MCF7. The note with it: Homo sapiens; MCF7, 72 hrs. Type of experiment: cell-based. Summed up:
as §1

In the next experiment the test system is SK-MEL-28-luc. The experiment is described as follows: 72 h MTT cytotoxicity assay SK-MEL-28-luc. The following applies: Homo sapiens. Type of experiment: cell-based. Summed up: as §1
The test system of the next experiment is Jurkat. Nature of the experiment: 72 h MTT cell viability Jurkat. Type of experiment: cell-based. The following applies: Homo sapiens.
Description: as §2, §3, §4

The next experiment concerns HCT 116. The experiment is described as follows: 72 h MTT cell viability HCT 116. Type of experiment: cell-based. The note with it: Homo sapiens.
Description: as §2, §3, §4

The next experiment relates to K562 cells. The experiment is described as follows: 72 h MTT cytotoxicity assay K562. Type of experiment: cell-based. The note with it: Homo sapiens; K562, 72 hrs. Summed up: as §1
The subject of another experiment is HL-60. Nature of the experiment: 72 h MTT cell viability HL-60. It counts as cell-based. The note with it: Homo sapiens.
Description: as §2, §3, §4

For the next experiment, the system named is THP-1. Nature of the experiment: 72 h MTT cell viability THP-1. The following applies: Homo sapiens, THP-1; read-out: Cell Viability IC50 THP-1. Type of experiment: cell-based.
Description: as §2, §3, §4

For the next experiment, the system named is WI-38. The experiment is described as follows: 72 h MTT cell viability WI-38 (normal lung). Type of experiment: cell-based. The note with it: Homo sapiens; WI-38, normal lung cell line. Summed up:
as §1

Another experiment deals with A549 cells. Nature of the experiment: 72 h MTT cytotoxicity assay A549. It counts as cell-based. The following applies: Homo sapiens; A549, 72 hrs. The method, boiled down:
as §1

For a further experiment, the system named is PC-3M-luc. Nature of the experiment: 72 h MTT cell viability PC-3M-luc. The note with it: Homo sapiens. Type of experiment: cell-based.
Description: as §2, §3, §4

Another experiment concerns the target CDK9T1 (Homo sapiens, UniProt P50750). Nature of the experiment: Kinase assay CDK9T1 (Table I). It counts as biochemical. The following applies: read-out: Kinase inhibition, IC50 CDK9T1.
For a further experiment, the system named is Eca-109 cells. Nature of the experiment: 72 h MTT cytotoxicity assay Eca-109. Type of experiment: cell-based. The following applies: Homo sapiens; Eca-109, 72 hrs. The method, boiled down:
as §1

Setting [1] is: read-out: Cell Viability IC50 Jurkat.
Where [2] appears, read: read-out: Cell Viability IC50 HCT 116.

Sequence of CDK9T1 (P50750 whole entry): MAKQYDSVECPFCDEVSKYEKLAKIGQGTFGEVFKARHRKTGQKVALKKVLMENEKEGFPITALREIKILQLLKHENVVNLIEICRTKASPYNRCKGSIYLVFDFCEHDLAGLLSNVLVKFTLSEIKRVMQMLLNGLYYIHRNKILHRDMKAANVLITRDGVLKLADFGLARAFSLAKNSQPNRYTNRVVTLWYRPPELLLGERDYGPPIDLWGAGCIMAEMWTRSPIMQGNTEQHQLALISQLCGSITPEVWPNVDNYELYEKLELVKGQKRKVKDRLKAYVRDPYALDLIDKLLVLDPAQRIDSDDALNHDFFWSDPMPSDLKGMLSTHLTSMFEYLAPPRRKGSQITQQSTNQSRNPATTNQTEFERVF
Sequence of CDK9T1 (O60563 whole entry partner): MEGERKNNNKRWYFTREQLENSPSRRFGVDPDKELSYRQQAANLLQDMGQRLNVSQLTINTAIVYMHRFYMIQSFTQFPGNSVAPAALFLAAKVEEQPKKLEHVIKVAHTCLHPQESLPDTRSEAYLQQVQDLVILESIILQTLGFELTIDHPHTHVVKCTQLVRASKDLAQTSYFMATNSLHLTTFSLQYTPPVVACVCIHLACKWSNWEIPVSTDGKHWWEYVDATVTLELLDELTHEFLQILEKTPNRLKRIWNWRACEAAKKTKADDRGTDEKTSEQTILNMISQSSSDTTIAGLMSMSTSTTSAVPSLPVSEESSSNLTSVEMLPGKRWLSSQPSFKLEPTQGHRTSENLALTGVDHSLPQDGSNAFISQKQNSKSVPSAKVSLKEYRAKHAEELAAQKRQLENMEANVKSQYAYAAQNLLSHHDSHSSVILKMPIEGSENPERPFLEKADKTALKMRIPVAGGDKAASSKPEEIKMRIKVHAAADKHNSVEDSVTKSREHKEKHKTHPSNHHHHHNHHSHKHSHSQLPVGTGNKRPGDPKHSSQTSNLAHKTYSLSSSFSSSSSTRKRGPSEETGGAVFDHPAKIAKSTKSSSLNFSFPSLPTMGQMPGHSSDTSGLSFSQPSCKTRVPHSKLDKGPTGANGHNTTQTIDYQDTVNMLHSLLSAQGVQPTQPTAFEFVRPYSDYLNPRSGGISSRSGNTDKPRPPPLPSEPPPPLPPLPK

On to `CCn1cc(-c2ccnc(Nc3cccc(S(N)(=O)=O)c3)n2)c2cccnc21` [Compound 18, 3-(4-(1-Ethyl-1H-pyrrolo[2,3-b]pyridin-3-yl)pyrimidin-2-ylamino)benzenesulfonamide], for which the IC50 is 3.3 µM with MDA-MB-231-luc; 680 nM in the experiment on HepG2; 810 nM in the experiment with HT-29; 710 nM with MCF7; 8590 nM with SK-MEL-28-luc; 1310 nM with Jurkat (Table III, read-out: Cellular effect in mammalian cells IC50 Jurkat). Further, the IC50 in the experiment with HCT 116 (HCT116, Table III, read-out: Cellular effect in mammalian cells IC50 HCT116) is 2100 nM; in the experiment with K562 cells, 6690 nM; in the experiment on HL-60 it was 1850 nM; in the experiment on THP-1 it was 5370 nM; in the experiment with WI-38, 11.1 µM; in the experiment with A549 cells, 1210 nM. Moreover, the IC50 was found to be 3550 nM in the experiment on PC-3M-luc, 14 nM on CDK9T1 and 11.7 µM in the experiment with Eca-109 cells.
In the case of `CCCn1cc(-c2ccnc(Nc3cccc(S(N)(=O)=O)c3)n2)c2ccnc(Cl)c21` [Compound 96, 3-(4-(7-chloro-1-propyl-1H-pyrrolo[2,3-c]pyridin-3-yl)pyrimidin-2-ylamino)benzenesulfonamide], the IC50 with HepG2 was 250 nM; in the experiment with HT-29 it was 480 nM; in the experiment with MCF7, 250 nM; in the experiment with SK-MEL-28-luc it was 260 nM; with Jurkat (setting [1]), 220 nM; in the experiment with HCT 116 (setting [2]), 320 nM. In addition, the IC50 is 220 nM in the experiment with K562 cells; 370 nM in the experiment on HL-60; 360 nM with THP-1; more than 10 µM with WI-38; 120 nM with A549 cells; 480 nM with PC-3M-luc. Also, the IC50 was 8.6 nM at CDK9T1 and more than 10 µM in the experiment with Eca-109 cells.
Consider `CCCn1cc(-c2ccnc(Nc3ccc(S(N)(=O)=O)cc3)n2)c2ccncc21` [Compound 112, 4-(4-(1-Propyl-1H-pyrrolo[2,3-c]pyridin-3-yl)pyrimidin-2-ylamino)benzenesulfonamide], for which the IC50 in the experiment with HepG2 is 470 nM; in the experiment on HT-29, 50 nM; in the experiment with MCF7, 1.4 nM; with SK-MEL-28-luc it was 3.8 nM; with Jurkat (setting [1]), 2.5 nM; with HCT 116 (setting [2]), 5 nM. In addition, the IC50 in the experiment with K562 cells is 1.1 nM; in the experiment with HL-60 it was 8 nM; with THP-1, 4 nM; in the experiment on WI-38 it was more than 10 µM; in the experiment on A549 cells it was 30 nM; in the experiment with PC-3M-luc, 27 nM. The values for the IC50 on CDK9T1 and in the experiment with Eca-109 cells were 0.7 nM and 0.01 µM, respectively.
